Laboratory results: patent publication US11684614B2, “Formulations of hydroxypyridonate actinide/lanthanide decorporation agents” (priority 2017, dated 2023)
Like-named read-outs stand apart in the source and are kept apart here.

Tests used:
[1] = 7-day oral gavage study in Sprague Dawley rats (SRI No. M801-10); format: in vivo
[2] = GLP single oral dose cardiovascular assessment in beagle dogs (electrocardiogram, blood pressure); format: in vivo; settings: 37.5, 75, or 150 mg/kg single oral dose
Procedure: Cardiovascular parameters in beagle dogs after a single oral administration of formulated capsules was determined in a GLP study
Electrocardiograms and blood pressure were evaluated from 3 male and 3 female beagle dogs per dose group (0, 37.5, 75, or 150 mg/kg) at pretest, 1 and 4 hours post-dose, and 7 days after a single oral dose of formulated material (TABLE 8.1). […] Instances of increased or decreased blood pressure (hypertension or hypotension) in various dogs were considered sporadic or due to stress, excitement, or struggling during the time of recording and not test article related. In summary, electrocardiogram and blood pressure assessments in beagle dogs raised no cardiovascular safety concerns.

[3] = In vitro human liver microsome stability; format: in vitro ADME
CYP2D6 = CYP2D6 (Homo sapiens, UniProt P10635); test: CYP inhibition; format: in vitro ADME
Sequence of CYP2D6 (P10635 whole entry): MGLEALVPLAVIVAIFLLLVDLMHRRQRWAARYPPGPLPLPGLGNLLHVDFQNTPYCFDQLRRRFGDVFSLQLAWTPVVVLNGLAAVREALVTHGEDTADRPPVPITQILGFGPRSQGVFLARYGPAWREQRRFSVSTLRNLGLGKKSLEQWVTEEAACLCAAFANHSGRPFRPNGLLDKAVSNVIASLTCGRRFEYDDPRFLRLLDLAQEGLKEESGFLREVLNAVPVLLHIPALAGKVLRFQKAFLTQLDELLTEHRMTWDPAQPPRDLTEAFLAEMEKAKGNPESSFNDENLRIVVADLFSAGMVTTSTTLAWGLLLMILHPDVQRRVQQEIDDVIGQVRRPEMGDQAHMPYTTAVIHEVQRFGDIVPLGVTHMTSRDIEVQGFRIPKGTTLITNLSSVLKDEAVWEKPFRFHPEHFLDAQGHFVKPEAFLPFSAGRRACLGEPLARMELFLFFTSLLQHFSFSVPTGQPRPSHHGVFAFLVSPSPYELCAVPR

CYP2B6 = target: T1, CYP2B6 (Homo sapiens, UniProt P20813); test: CYP inhibition; format: in vitro ADME
T1 sequence (P20813 1-491): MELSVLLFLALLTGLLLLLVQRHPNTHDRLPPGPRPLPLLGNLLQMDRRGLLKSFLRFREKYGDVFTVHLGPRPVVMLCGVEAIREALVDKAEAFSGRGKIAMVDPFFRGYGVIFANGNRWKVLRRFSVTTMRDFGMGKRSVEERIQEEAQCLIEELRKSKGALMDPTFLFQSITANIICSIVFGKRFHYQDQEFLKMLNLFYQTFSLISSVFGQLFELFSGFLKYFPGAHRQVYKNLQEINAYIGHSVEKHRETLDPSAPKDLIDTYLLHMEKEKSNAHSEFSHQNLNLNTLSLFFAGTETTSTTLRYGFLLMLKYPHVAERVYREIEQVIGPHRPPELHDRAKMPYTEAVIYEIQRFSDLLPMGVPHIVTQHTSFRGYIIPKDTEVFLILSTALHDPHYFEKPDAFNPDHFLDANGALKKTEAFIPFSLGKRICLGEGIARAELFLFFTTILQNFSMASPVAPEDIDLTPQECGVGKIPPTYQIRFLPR

[4] = Plasma protein binding, rat; format: in vitro ADME; settings: tested at 10 μg/ml
Procedure: (§1) Plasma protein binding differed across species; it was greatest in dog (95%), intermediate in human (29%), and lowest in rat (5%) when tested at 10 μg/ml.

CYP2C19 = CYP2C19 (Homo sapiens, UniProt P33261); test: CYP inhibition; format: in vitro ADME
Sequence of CYP2C19 (P33261 whole entry): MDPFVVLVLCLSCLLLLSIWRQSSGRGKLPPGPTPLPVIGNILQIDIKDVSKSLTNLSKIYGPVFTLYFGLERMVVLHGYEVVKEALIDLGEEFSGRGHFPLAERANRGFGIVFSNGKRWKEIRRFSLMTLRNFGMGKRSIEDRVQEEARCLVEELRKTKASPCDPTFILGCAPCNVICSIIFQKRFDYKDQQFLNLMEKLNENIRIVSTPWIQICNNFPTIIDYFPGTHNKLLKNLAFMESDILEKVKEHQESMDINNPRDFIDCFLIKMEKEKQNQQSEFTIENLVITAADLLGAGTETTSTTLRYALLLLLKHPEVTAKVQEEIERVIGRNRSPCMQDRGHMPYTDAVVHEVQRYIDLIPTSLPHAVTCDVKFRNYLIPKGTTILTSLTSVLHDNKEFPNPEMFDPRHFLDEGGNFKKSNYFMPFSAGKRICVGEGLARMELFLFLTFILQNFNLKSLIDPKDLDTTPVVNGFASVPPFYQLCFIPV

[5] = Plasma protein binding, human; format: in vitro ADME; settings: tested at 10 μg/ml
Procedure: as §1

[6] = format: in vivo, Swiss-Webster mice
Source text: Formulated material was used in the single dose in vivo ADME characterization studies in Sprague Dawley rats and Swiss-Webster mice with 14C-labeled 3,4,3-L1(1,2-HOPO).
Pharmacokinetic parameters and disposition/biodistribution of 3,4,3-L1(1,2-HOPO) were characterized in vivo (with the aid of two 14C labels on the spermine backbone of the parent product) in two non-GLP studies using Swiss-Webster mice and Sprague Dawley rats. The study designs for these two studies are shown in TABLE 5.1 and TABLE 5.2, respectively. Groups of six mice (3 male, 3 female) were given a single dose of [14C]-3,4,3-L1(1,2-HOPO) via iv, ip, or po routes, respectively. An additional group of six mice (3 male, 3 female) were administered the 14C-labeled API with permeability enhancer (10% sodium oleate) by oral gavage (po). Similarly, groups of six rats (3 male, 3 female) were administered a single iv dose of the 14C-labeled API or a single po dose of the 14C-labeled API with 10% sodium oleate. In each of these studies, samples were collected at scheduled time points up to 24 hr post-dose and analyzed for 14C content using liquid scintillation counting. Blood, liver, kidney, feces and urine were collected and analyzed from the mice. Blood, brain, liver, kidney, lungs, spleen, skeletal muscle tissues, gastrointestinal (GI) tract samples, carcasses, feces, and urine were collected and analyzed from the rats.

[7] = po, female mice, formulated with sodium oleate
[8] = po, female mice, without sodium oleate
[9] = po, male mice, formulated with sodium oleate
[10] = po, male mice, without sodium oleate

SMILES: O=C(NCCCN(CCCCN(CCCNC(=O)c1cccc(=O)n1O)C(=O)c1cccc(=O)n1O)C(=O)c1cccc(=O)n1O)c1cccc(=O)n1O [3,4,3-L1(1,2-HOPO)]
- renal findings ([1]; 7 days of oral gavage): no renal findings
- soft stools or diarrhea ([1]; oral gavage 400-1300 mg/kg (532-1732 μmol/kg) for 7 days): not observed
- electrocardiographic, heart rate, or blood pressure findings [2]: no electrocardiographic, heart rate, or blood pressure findings
- stability in human liver microsomes [3]: relatively stable
- inhibition of CYP2D6 activity (CYP2D6): did not inhibit
- inhibition of CYP2B6 activity (CYP2B6): did not inhibit
- Plasma protein binding [4]: 5%
- inhibition of CYP2C19 activity (CYP2C19): did not inhibit
- Plasma protein binding [5]: 29%
- oral bioavailability (F) of radioactive compound ([6]; female mice): 2.6%
- oral bioavailability (F) of radioactive compound ([6]; male mice): 1.2%
- enhancement of exposure parameters with sodium oleate ([6]; mice): 2- to 3 fold
- oral bioavailability improvement with sodium oleate ([6]; mice): about 2 fold
- Tmax ([6]; oral dose, rodents (mice)): ~42 min
- AUC calculated over 2 hr posttreatment [6, 7]: 35.1±18.9 min Pg-eq/ml
- Cmax [6, 7]: 1.4 Pg-eq/ml
- AUC calculated over 2 hr posttreatment [6, 8]: 23.0±15.4 min Pg-eq/ml
- Cmax [6, 8]: 0.55 Pg-eq/ml
- AUC calculated over 2 hr posttreatment [6, 9]: 17.4±6.7 min Pg-eq/ml
- Cmax [6, 9]: 0.93 Pg-eq/ml
- AUC calculated over 2 hr posttreatment [6, 10]: 8.3±6.2 min Pg-eq/ml
- Cmax [6, 10]: 0.32 Pg-eq/ml
- Cmax improvement with sodium oleate ([6]; po, mice): approximately 3 fold
